A short description of the first assay: Non-competitive inhibition of bacterial C-terminal His6-tagged ErmC' (unknown origin) expressed in Escherichia coli BL21(DE3) in presence of [methyl-3H]SAM.
On to `O=C(c1c[nH]c(=O)[nH]1)N1CCN(c2ccc(C(F)(F)F)cn2)CC1`, for which the Ki is 148 µM.

The next assay in a line: Inhibition of bacterial C-terminal His6-tagged ErmC' expressed in Escherichia coli ER2566 assessed as decrease in rRNA methylation using [methyl-3H]AdoMet measured after 1 hr.
For `O=C1c2ccccc2C(=O)N1CN(CCCn1ccnc1)CN1C(=O)c2ccccc2C1=O`, the IC50 is 300 µM.

Take `COC(=O)c1sc2ccccc2c1OS(=O)(=O)c1ccc(Cl)cc1`: the IC50 was found to be 250 µM.

For `Clc1ccccc1Cn1nnc2c(N/N=C/c3cccnc3)ncnc21`, the IC50 is 250 µM.

As for `Cc1ccc(Sc2cc(C)c(C#N)c(Sc3ccc(C)cc3)n2)cc1`, the IC50 was 180 µM.

Another assay is described as follows: Inhibition of bacterial C-terminal His6-tagged ErmC' (unknown origin) expressed in Escherichia coli BL21(DE3) assessed as decrease in rRNA methylation using [methyl-3H]AdoMet measured after 1 hr.
As to `CCCc1cc(C(=O)Nc2cccc(OCc3ccncc3)c2)[nH]n1`, the IC50 worked out at 250 µM.

With `O=C(NCCSc1ccccc1)c1ccc(-n2cncn2)cc1`, the IC50 came out at 250 µM.

On to `CC(=O)Nc1nc(C)c(-c2csc(Nc3cccc(O)c3)n2)s1`, for which the IC50 stood at 299 µM.

For the compound `Cn1cnnc1-c1cccc(NC(=O)Cc2cccc(F)c2)c1`, the IC50 worked out at 500 µM.

As for `O=C(NCCOc1ccc2c(c1)OCO2)c1ccc2ccccc2n1`, the IC50 amounted to 500 µM.

Take `O=C(CSc1nc2cccnc2[nH]1)Nc1nccs1`: the IC50 is above 500 µM.

For `FC(F)(F)c1ccc(N2CCN(Cc3cn4ccccc4n3)CC2)nc1`, the IC50 was above 500 µM.

On to `Cc1cccc(Nc2nc(C(=O)N3CCN(c4ccc(C(F)(F)F)cn4)CC3)cs2)n1`, for which the IC50 was 116 µM.

As for `FC(F)(F)c1ccc(N2CCN(Cc3c[nH]c(-c4ccccc4)n3)CC2)nc1`, the IC50 was above 500 µM.

Take `O=C(NCc1cccc(Cn2ccnc2)c1)c1cc2ccccc2o1`: the IC50 came out at 500 µM.

Regarding `O=C(NC1CCN(c2nc3ccccc3s2)CC1)c1ccncc1`, the IC50 was above 500 µM.

For the compound `CC(=O)Nc1ccc(S(=O)(=O)NCCc2ccncc2)cc1`, the IC50 turned out to be 500 µM.

`O=C(c1csc(Nc2ncccn2)n1)N1CCN(c2ccc(C(F)(F)F)cn2)CC1`: the IC50 came to 110 µM.

Take `O=C(c1cc(Cl)c[nH]1)N1CCN(c2ncc(C(F)(F)F)cc2Cl)CC1`: the IC50 was above 500 µM.

As for `O=C(c1c[nH]c(=O)[nH]1)N1CCN(c2ccc(C(F)(F)F)cn2)CC1`, the IC50 stood at 100 µM.

Turning to `O=C(Nc1nccs1)c1cc(-c2ccccn2)nc2ccccc12`, the IC50 was above 250 µM.

Regarding `Nc1nc(N)nc(CSc2nnc(NCc3ccccc3)s2)n1`, the IC50 was above 500 µM.

The nature of another assay: Inhibition of bacterial C-terminal His6-tagged ErmC' expressed in Escherichia coli BL21(DE3) assessed as decrease of protein binding to [gamma-33P]ATP-labeled 32-nt oligonucleotide after 30 mins by filter binding assay.
Regarding `Cc1cccc(Nc2nc(C(=O)N3CCN(c4ccc(C(F)(F)F)cn4)CC3)cs2)n1`, the Kd stood at 1.04 µM.

For the compound `O=C(c1csc(Nc2ncccn2)n1)N1CCN(c2ccc(C(F)(F)F)cn2)CC1`, the Kd worked out at 0.04 µM.

The next assay in a line: Competitive inhibition of bacterial C-terminal His6-tagged ErmC' expressed in Escherichia coli BL21(DE3) in presence of [methyl-3H]SAM.
Take `CC(=O)Nc1nc(C)c(-c2csc(Nc3cccc(O)c3)n2)s1`: the Ki was found to be 354 µM.

For the compound `O=C(c1csc(Nc2ncccn2)n1)N1CCN(c2ccc(C(F)(F)F)cn2)CC1`, the Ki came to 111 µM.

A short description of a further assay: Inhibition of bacterial ErmC' assessed as decrease in rRNA methylation preincubated for 15 mins followed by S-adenosyl-L-[methyl3H]methionine addition measured after 2 hrs by scintillation counting method.
Turning to `Cc1nccc(C(=O)Nc2cc(NC(=O)c3ccccc3)ccc2C)n1`, the IC50 worked out at 18 µM.

The next assay can be described thus: Non-competitive inhibition of bacterial C-terminal His6-tagged ErmC' (unknown origin) expressed in Escherichia coli BL21(DE3) in presence of [methyl-3H]SAM. This is another data set of the same source.
For the compound `Nn1c(SCc2nc3ccccc3[nH]2)nnc1-c1ccncc1`, the IC50 is 500 µM.

For `COc1ccc(C(=O)CSc2nc(O)cc(=O)[nH]2)cc1`, the IC50 was above 500 µM.

Turning to `O=C(Nc1ccn(CCc2ccncc2)n1)Nc1ccc(F)cc1F`, the IC50 worked out at 500 µM.

For the compound `Cc1occc1C(=O)Nc1nc(CC(=O)Nc2ccccc2)cs1`, the IC50 came out at 250 µM.

As for `CC(=O)c1c[nH]c(C(=O)N2CCN(c3ccc(C(F)(F)F)cn3)CC2)c1`, the IC50 was above 500 µM.

Consider `O=C(Nc1cccc(NCc2ccncc2)c1)c1ccccc1Cl`, for which the IC50 is above 500 µM.

In the case of `O=C(c1cnn[nH]1)N1CCN(c2ccc(C(F)(F)F)cn2)CC1`, the IC50 is above 500 µM.

Take `O=C(Nc1cccc(NC(=O)c2cccc(F)c2)c1)c1ccncc1`: the IC50 was 250 µM.

In the case of `O=C(CSc1nnc2c(n1)[nH]c1ccccc12)Nc1ccccn1`, the IC50 was above 250 µM.

For `O=C(c1cn(-c2ccccc2)nn1)N1CCN(c2ccc(C(F)(F)F)cn2)CC1`, the IC50 amounted to 500 µM.

For `O=C(c1n[nH]c(=O)[nH]1)N1CCN(c2ccc(C(F)(F)F)cn2)CC1`, the IC50 is above 500 µM.

On to `O=C(Nc1ccncc1)c1ccn(COc2ccc(F)c(Cl)c2)n1`, for which the IC50 was above 500 µM.

Turning to `O=C(c1cc(C2CC2)n[nH]1)N1CCN(c2ccc(C(F)(F)F)cn2)CC1`, the IC50 was above 500 µM.

For the compound `CN(C)c1ccc(CNC(=O)c2ccc(-n3cncn3)cc2)cc1`, the IC50 is above 500 µM.

As for `O=C(Cc1cn2ccsc2n1)Nc1cccc(N2CCCC2=O)c1`, the IC50 was above 500 µM.

`O=C(Cc1cccc(F)c1)Nc1cccc(-c2ccn[nH]2)c1`: the IC50 came to 500 µM.

The record behind these values is BindingDB's records for doi:10.1016/j.ejmech.2017.11.032 (International Institute of Molecular and Cell Biology, 2018).
